In paper PMC3983396 (Journal of medicinal chemistry, 2014):
Values belong to the molecule of their own block, whether it stands above or below them.

Tests used:
[1] = Water solubility of salts; assay type: physicochemical; conditions: compared to the salts of monocyclic amines (7m and 7s)
CDKs 1, 2, 5, 8 and 9 = assay: In vitro kinase assay, other CDKs; assay type: biochemical; conditions: data not shown
[2] = system: PARP cleavage in MCF-7 and MDA-MB-231 cells; assay: PARP cleavage, Western blot; assay type: cell-based, human; conditions: 24 h, 1 μM
[3] = system: MCF-7 and MDA-MB-231 cells; assay: Flow cytometry after prolonged treatment; assay type: cell-based, human; conditions: greater than 48 h
CD-1 female mice = conditions: CD-1, mouse, in vivo
human tumor cell lines = assay: Growth arrest of a panel of human tumor cell lines; assay type: cell-based; conditions: read-out: GI50 values, growth arrest of most tumor cell lines
tumor cells = assay: Induction of apoptosis of tumor cells; assay type: cell-based
[4] = system: MDA-MB-231 tumor xenograft; assay: Orthotopic nude mouse assay; assay type: in vivo
[5] = system: AKT phosphorylation in MDA-MB-231 cells; assay: AKT phosphorylation; assay type: cell-based, human; conditions: MDA-MB-231, increasing concentrations, 24 h
CDK4 = conditions: read-out: IC50 CDK4; cited from earlier work
CDK6 = conditions: read-out: IC50 CDK6; cited from earlier work

Compound: CN1CCN(c2ccc(Nc3ncc4cc(C#N)c(=O)n(C5CCCC5)c4n3)nc2)CC1 [7v, 8-Cyclopentyl-2-[5-(4-methyl-piperazin-1-yl)-pyridin-2-ylamino]-7-oxo-7,8-dihydro-pyrido[2,3-d]pyrimidine-6-carbonitrile]
- water solubility of salts [1]: enhanced water solubility

Compound: N#Cc1cc2cnc(N3CCN(c4ccc(C(F)(F)F)cn4)CC3)nc2n(C2CCCC2)c1=O [7w, 8-Cyclopentyl-7-oxo-2-[4-(5-trifluoromethyl-pyridin-2-yl)-piperazin-1-yl]-7,8-dihydro-pyrido[2,3-d]pyrimidine-6-carbonitrile]
- water solubility of salts [1]: enhanced water solubility

Compound: CN1CCN(c2ccc(Nc3ncc4cc(C#N)c(=O)n(C5CCCC5)c4n3)cc2)CC1 [7x, 8-Cyclopentyl-2-[4-(4-methyl-piperazin-1-yl)-phenylamino]-7-oxo-7,8-dihydro-pyrido[2,3-d]pyrimidine-6-carbonitrile]
- inhibitory activity against CDKs 1, 2, 5, 8 and 9 (CDKs 1, 2, 5, 8 and 9): little inhibitory activity
- PARP cleavage (~89 kDa cleaved polypeptide) [2]: dose-dependent accumulation of the ~89 kDa cleaved PARP polypeptide
- sub-G1 population (apoptosis) [3]: appearance of a sub-G1 population
- mice surviving more than 10 days after injection (CD-1 female mice): 100%
- GI50 (human tumor cell lines): 0.025 to 2 µM
- concentration inducing apoptosis of tumor cells (tumor cells): 30 to 100 nM
- tumor growth ([4]; 50 mg/kg Q2D IP, 21 day period): dose-dependent inhibition of tumor growth
- signs of toxicity in treated groups ([4]; 50 mg/kg Q2D IP, body weights): No overt signs of toxicity
- tumor weight at the end-point of the study ([4]; data not shown): decrease in tumor weight
- phosphorylation of AKT (Ser473) [5]: inhibits the phosphorylation of AKT

Compound: CC(=O)c1c(C)c2cnc(Nc3ccc(N4CCNCC4)cn3)nc2n(C2CCCC2)c1=O [PD-0332991, Palbociclib, reference compound]
- IC50 (CDK6): 0.015 µM
- PARP cleavage (~89 kDa cleaved polypeptide) [2]: not observed
- sub-G1 population (apoptosis) [3]: absent

Continued, values first:

- water solubility of salts [1]: enhanced water solubility
Compound: N#Cc1cc2cnc(Nc3ccc(N4CCOCC4)cc3)nc2n(C2CCCC2)c1=O [7t, 8-Cyclopentyl-2-(4-morpholin-4-yl-phenylamino)-7-oxo-7,8-dihydro-pyrido[2,3-d]pyrimidine-6-carbonitrile]

- water solubility of salts [1]: enhanced water solubility
Compound: N#Cc1cc2cnc(Nc3ccc(N4CCOCC4)cn3)nc2n(C2CCCC2)c1=O [7u, 8-Cyclopentyl-2-(5-morpholin-4-yl-pyridin-2-ylamino)-7-oxo-7,8-dihydro-pyrido[2,3-d] pyrimidine-6-carbonitrile]
